These results are taken from ChEMBL document CHEMBL4828719, “H2dpa derivatives containing pentadentate ligands: An acyclic adjuvant potentiates meropenem activity in vitro and in vivo against metallo-β-lactamase-producing Enterobacterales” (Eur J Med Chem, 2021).

The test system of experiment [1] is Escherichia coli. Briefly: Antibiotic adjuvant activity against IMP-4 producing Escherichia coli DH5alpha assessed as potentiation of meropenem-induced antibacterial activity incubated for 16 to 20 hrs by agar disc diffusion assay. The format is functional, organism-based. To be noted: DH5[alpha], time 16-20 hrs. A general note: Agar diffusion results depend on both activity and mobility in agar.

Experiment [2] deals with Escherichia coli. Description: Antibiotic adjuvant activity against NDM-1 producing Escherichia coli DH5alpha assessed as potentiation of meropenem-induced antibacterial activity incubated for 16 to 20 hrs by agar disc diffusion assay. It counts as functional, organism-based. The note with it: DH5[alpha], time 16-20 hrs.
Experiment [3] in a line: Zinc chelation-dependent inhibition of VIM-2 (unknown origin) expressed in Escherichia coli BL21 (DE3) using nitrocefin as substrate preincubated with enzyme for 5 to 10 mins followed by substrate addition.
Experiment [4] concerns Escherichia coli. Briefly: Synergistic antibacterial activity against IMP-4 producing Escherichia coli DH5alpha assessed as fractional inhibitory concentration index incubated for 16 to 20 hrs in presence of meropenem by checkerboard assay. The format is functional, DH5[alpha]. The note with it: time 16-20 hrs.
Experiment [5] relates to Escherichia coli. Briefly: Antibiotic adjuvant activity against VIM-1 producing Escherichia coli DH5alpha assessed as potentiation of meropenem-induced antibacterial activity incubated for 16 to 20 hrs by agar disc diffusion assay. It counts as functional, organism-based. To be noted: DH5[alpha], time 16-20 hrs.
Experiment [6] can be described thus: Zinc chelation-dependent inhibition of NDM-1 (unknown origin) expressed in Escherichia coli BL21 (DE3) using meropenem as substrate preincubated with enzyme for 5 to 10 mins followed by substrate addition.
For experiment [7], the system named is Escherichia coli. Briefly: Synergistic antibacterial activity against VIM-1 producing Escherichia coli DH5alpha assessed as fractional inhibitory concentration index incubated for 16 to 20 hrs in presence of meropenem by checkerboard assay. The format is functional, DH5[alpha]. To be noted: time 16-20 hrs.
Experiment [8] has as its system Escherichia coli. Description: Antibacterial activity against NDM-1 producing Escherichia coli DH5alpha assessed as decrease in bacterial growth incubated for 16 to 20 hrs by CLSI based microdilution method. The format is functional. The note with it: DH5[alpha], time 16-20 hrs. In general terms: Broth dilution looks for growth in wells or tubes with falling amounts of substance.

The nature of experiment [9]: Zinc chelation-dependent inhibition of IMP-4 (unknown origin) expressed in Escherichia coli BL21 (DE3) using imipenem as substrate preincubated with enzyme for 5 to 10 mins followed by substrate addition.
The subject of experiment [10] is Escherichia coli. Description: Antibacterial activity against VIM-1 producing Escherichia coli DH5alpha assessed as decrease in bacterial growth incubated for 16 to 20 hrs by CLSI based microdilution method. The format is functional. The note with it: DH5[alpha], time 16-20 hrs.
Experiment [11] deals with Escherichia coli. Description: Synergistic antibacterial activity against NDM-1 producing Escherichia coli DH5alpha assessed as fractional inhibitory concentration index incubated for 16 to 20 hrs in presence of meropenem by checkerboard assay. To be noted: time 16-20 hrs. The format is functional, DH5[alpha].
Experiment [12] has as its system Escherichia coli. Description: Antibacterial activity against IMP-4 producing Escherichia coli DH5alpha assessed as decrease in bacterial growth incubated for 16 to 20 hrs by CLSI based microdilution method. It counts as functional. To be noted: DH5[alpha], time 16-20 hrs.
A short description of experiment [13]: Zinc chelation-dependent inhibition of VIM-2 (unknown origin) expressed in Escherichia coli DH5 alpha using nitrocefin as substrate preincubated with enzyme for 5 mins followed by substrate addition in presence of zinc sulfate.
A short description of experiment [14]: Zinc chelation-dependent inhibition of IMP-1 (unknown origin) expressed in Escherichia coli DH5 alpha using imipenem as substrate preincubated with enzyme for 5 mins followed by substrate addition in the presence of zinc sulfate.
A short description of experiment [15]: Zinc chelation-dependent inhibition of NDM-1 (unknown origin) expressed in Escherichia coli DH5 alpha using meropenem as substrate preincubated with enzyme for 5 mins followed by substrate addition in the presence of zinc sulfate.

≈ marks a conversion by molar mass, not a printed value. Calls of active or inactive are those of the source. No cut-off for these calls is given here. Some results are limits rather than exact numbers.

In general, IC50 refers to the concentration needed to halve the response being measured. By MIC is commonly meant the lowest concentration found to suppress growth. `O=C(O)CN(Cc1cccc(C(=O)O)n1)Cc1cccc(C(=O)O)n1`: the outcome in the experiment with Escherichia coli [1], in the experiment on Escherichia coli [2] and in the experiment on Escherichia coli [5] was Active. Besides, the half-maximal inhibitory concentration (IC50) in experiment [3] is 1.53 µM; in [6] it was 1.67 µM; in [9], 3.88 µM. Moreover, the “fractional inhibitory concentration index (FICI)” value with Escherichia coli [4] worked out at 0.14; in the experiment on Escherichia coli [7], 0.07; with Escherichia coli [11] it was 0.07. For the same compound, the MIC with Escherichia coli [8], in the experiment on Escherichia coli [10] and in the experiment on Escherichia coli [12] was 128 µg/mL (≈ 371 µM) throughout.
`O=C(O)c1cccc(CN(CCP(=O)(O)O)Cc2cccc(C(=O)O)n2)n1`: the outcome in the experiment on Escherichia coli [1], with Escherichia coli [2] and with Escherichia coli [5] was Active. The concentration for half-maximal inhibition (IC50) in [3] worked out at 2.03 µM; in experiment [6] it was 1.65 µM; in experiment [9] it was 4.84 µM. Moreover, the “fractional inhibitory concentration index (FICI)” value with Escherichia coli [4] was found to be 0.14; in the experiment with Escherichia coli [7], 0.07; in the experiment on Escherichia coli [11] it was 0.07. The MIC in the experiment on Escherichia coli [8], in the experiment on Escherichia coli [10] and with Escherichia coli [12] was 128 µg/mL (≈ 324 µM) throughout.
Regarding `O=C(O)c1cccc(CNCc2cccc(C(=O)O)n2)n1`, the outcome with Escherichia coli [1], with Escherichia coli [2] and in the experiment on Escherichia coli [5] was Active. The IC50 turned out to be 1.05 µM in experiment [3], 1.54 µM in experiment [6] and 1.04 µM in [9]. Further, the “fractional inhibitory concentration index (FICI)” value with Escherichia coli [4] was determined as 0.14; with Escherichia coli [7] it was 0.07; with Escherichia coli [11], 0.07. The MIC in the experiment with Escherichia coli [8], in the experiment with Escherichia coli [10] and in the experiment with Escherichia coli [12] was 128 µg/mL (≈ 446 µM) each time.
As for `O=C(O)CN(CCN(CC(=O)O)CC(=O)O)CC(=O)O` [EDETIC ACID], the outcome in experiment [13], in experiment [14] and in [15] was inactive. Moreover, the 50% inhibitory concentration (IC50) in experiment [3] was above 200 µM; in experiment [6], 1.75 µM; in experiment [9], 12.5 µM.
For `C[C@H](CS)C(=O)N1CCC[C@H]1C(=O)O` [CAPTOPRIL], the outcome in experiment [13], in [14] and in [15] was Active.
As for `N[C@@H](CN[C@@H](CN[C@@H](CC(=O)O)C(=O)O)C(=O)O)C(=O)O`, the IC50 is above 200 µM in experiment [3], 4 µM in [6] and 9.6 µM in experiment [9].
